Patent US12331051B2 (priority 2021, dated 2025)

Assays:
[1] = biological target: ADRb1 (β1 adrenergic receptor) (Homo sapiens, UniProt P08588); experiment: BRET-based G protein dissociation assay; assay type: cell-based
DOI induced HTR in mice = experiment: Blockade of DOI-induced HTR; assay type: in vivo, mouse; details: 10 min before DOI 1 mg/kg
Description: The “E559 polymorph” was studied for its effect to block the hallucinogenic (HTR) response of a psychedelic 2,5-Dimethoxy-4-iodoamphetamine (DOI) in the mouse HTR model. DOI is a serotonergic hallucinogenic compound used commonly as a positive control in HTR model [Halberstadt et al., Psychopharmacology (Berl). 2013 June; 227(4):727-39]. An HTR study was performed as described in Example 2 as follows: Five groups of mice (n=6-7 per group, 31 total) were either treated with vehicle (saline) or with the “E559 polymorph” at 0.1, 0.3, 1, or 3 mg/kg. Ten minutes later, all of the mice were injected with DOI (1 mg/kg) and then HTR activity was assessed for 30 min. […] All doses of the “E559 polymorph” were effective in blocking the response to DOI in a dose-dependent manner. The data are represented as group means±standard deviation and asterisks indicate statistical significances (*p<0.0001) compared to the vehicle (saline) control (0 mg/kg in FIG. 13A).
The time course of the blockade of the DOI induced HTR by the “E559 polymorph” was examined. An HTR study was performed as described in Example 2 as follows: Two groups of mice (n=6 per group) were either treated with vehicle or with the “E559 polymorph” at 1 mg/kg. Ten minutes later, all of the mice were injected with DOI (1 mg/kg) and then HTR activity was assessed for 30 min. […] The data are represented as group means±standard deviation and asterisks indicate statistical significances (*p<0.0001) compared to the vehicle (saline) control (0 mg/kg in FIG. 13B). The time course of the blockade of the DOI induced HTR by the “E559 polymorph” mirrors the time course of the pharmacokinetics of the “E559 polymorph” in the mouse brain tissue (shown in Example 3).

[2] = tested on: cultured primary rat neurons; experiment: Cell viability, Neurite Outgrowth Staining Kit; assay type: cell-based; details: DIV 6, all tested concentrations
Description: The ability of the “E559 polymorph” to induce neural plasticity was evaluated in vitro. In vitro dendritogenesis and spinogenesis assays were conducted using primary rat embryonic cortical neurons. Briefly, cultured primary cortical neurons (rat) were treated at day in vitro (DIV) 3 for 3 hours with increasing concentrations (1, 10 and 100 nM, 1 and […]) of the “E559 polymorph” and morphological changes in dendritic arbor complexity (dendritogenesis) were assessed at DIV6 by immunofluorescent staining of fixed neurons with microtubule-associated protein 2 (MAP2, a microtubule marker), F-actin (cytoskeletal marker), and phalloidin (actin filament marker) followed by fluorescent microscopy and Sholl analysis of neurons' images. […] The spine density assessments (spinogenesis) were made on DIV 18. The cell viability assessments were made on DIV 6 by using the Neurite Outgrowth Staining Kit which includes fluorescent probes for dead and live neuronal cells. Ketamine was used as a comparator and positive control. Ketamine is known to induce dendritogenesis and its effects on synaptic plasticity are believed to mediate its antidepressant effects (Aguilar-Valles et al., Nature, 2021, 590, p315-319). Representative images of MAP2 stained rat cortical neurons treated with vehicle (no drug control) or with “E559 polymorph” is shown in FIG. 18A.

mice = experiment: Tolerance after repeated dosing, HTR to DOI challenge; assay type: in vivo, mouse; details: IP once daily 7 days: DOI 10 mg/kg/day, E559 polymorph 3 mg/kg/day; DOI 1 mg/kg challenge 24 hours later
Description: To determine if repeated dosing of the “E559 polymorph” can induce tolerance in vivo, HTR experiment described in Examples 2 and 5 was repeated where mice received IP injections of vehicle, DOI (10 mg/kg/day), or the “E559 polymorph” (3 mg/kg/day; once daily for 7 consecutive days) and were then challenged with DOI (1 mg/kg) 24 hours later. Data shown in FIG. 22 are group means±standard deviation for the entire 60 minutes test session. Asterisks indicate statistical significances compared to the Vehicle control (Vehicle was saline).

[3] = tested on: prefrontal cortex region of mice; experiment: Spine density analysis in the prefrontal cortex after FST; assay type: in vivo, mouse; details: both sexes, 1 mg/kg, ~26 hour after treatment
Description: Following testing in the FST, brains were collected for spine density analysis in the prefrontal cortex region (˜26 hour after treatment; FIG. 25H).

[4] = tested on: rat spared nerve injury (SNI) model; experiment: Spared nerve injury (SNI) model, von Frey mechanical allodynia; assay type: in vivo
Description: To evaluate the function the “E559 polymorph” in neuropathic pain, mechanical allodynia test was evaluated by von Frey filament in rat spared nerve injury (SNI) model before and after before and after treatment with the “E559 polymorph”. The SNI model and von Frey filament testing were conducted as previously described (Decosterd & Woolf. Pain, 2000, v87, p149-158). Briefly, Animals with a pain threshold of <15 g, assessed using the Von Frey mechanical allodynia testing, were randomly placed in experimental groups. Each rat group consisted of 10 male rats. On day 7 post-surgery treatment was initiated. […]
The pain response (Von Frey testing) was evaluated on day 0 pre-surgery (labelled as Baseline in FIG. 27), on day 6 post-surgery (labelled as Day 6 Pre grouping in FIG. 27), and at 2, 4, 6, and 24 hours after a single oral dose of either vehicle, or the “E559 polymorph” at 0.3, 1, 3, or 10 mg/kg (labelled as BETR-001 in FIG. 27), or gabapentin at 150 mg/kg. […]
Rat groups were treated (via oral administration) with either vehicle, or the “E559 polymorph” at 20 mg/kg (labelled as BETR-001 in FIG. 28), or gabapentin at 150 mg/kg. […] The pain response (Von Frey testing) was evaluated on day 0 pre-surgery (labelled as Baseline in FIG. 28), on day 6 post-surgery (labelled as Day 6 Pre grouping in FIG. 28), and at 2 hours post-treatment given on days 7, 11, and 15 post-surgery. […]

DVS hygroscopicity = assay type: physicochemical; details: for DVS (hold at 75% RH) mass increase: crude material, 75% relative humidity, ~5 hr run time

Chain of ADRb1 (β1 adrenergic receptor) (P08588 whole entry): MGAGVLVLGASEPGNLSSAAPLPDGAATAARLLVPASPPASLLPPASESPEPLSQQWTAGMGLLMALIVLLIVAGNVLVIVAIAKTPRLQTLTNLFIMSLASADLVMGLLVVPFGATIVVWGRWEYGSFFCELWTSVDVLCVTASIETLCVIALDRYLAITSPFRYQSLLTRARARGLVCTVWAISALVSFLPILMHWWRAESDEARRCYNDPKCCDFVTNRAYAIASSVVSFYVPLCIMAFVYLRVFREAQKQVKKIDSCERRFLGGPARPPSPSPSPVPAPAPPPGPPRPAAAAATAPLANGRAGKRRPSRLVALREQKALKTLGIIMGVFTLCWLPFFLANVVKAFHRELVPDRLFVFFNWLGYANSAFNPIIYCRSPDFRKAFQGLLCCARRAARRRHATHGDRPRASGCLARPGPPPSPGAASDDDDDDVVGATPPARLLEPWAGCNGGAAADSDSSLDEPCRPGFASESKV

CCN(CC)C(=O)[C@@H]1C=C2c3cccc4[nH]c(Br)c(c34)C[C@H]2N(C)C1 [E559, (5R, 8R)-2-Bromo-9,10-didehydro-N,N-diethyl-6-methylergoline-8-carboxamide hemi-D-tartrate]
EC50 [1]: > 10000 nM
Kb [1]: 95.2 nM
blockade of DOI induced HTR, time course (DOI induced HTR in mice; 1 mg/kg): almost completely blocked the DOI induced HTR during the first 10 minutes
time after which blockage of DOI induced HTR was no longer detected (DOI induced HTR in mice; 1 mg/kg): 40 to 60 min
attenuation of DOI-induced HTR (DOI induced HTR in mice; 0.1, 0.3, 1 or 3 mg/kg): significantly attenuated the ability of DOI to induce the HTR in mice
viability of cultured primary rat neurons (cytotoxic activity) [2]: no cytotoxic activity was observed at all tested concentrations
tolerance (tachyphylaxis) after repeated dosing, HTR count on DOI challenge (mice): no tolerance was observed
average spine density in prefrontal cortex [3]: significant increase in the average spine density
inhibition of mechanical allodynia, repeated dosing ([4]; oral 20 mg/kg on days 7, 9, 11, 13 and 15 post-surgery): enhanced the inhibition effect on mechanism allodynia to levels comparable to the gabapentin positive control
inhibition of neuropathic pain (von Frey), single dose ([4]; single oral dose 0.3, 1, 3 or 10 mg/kg on day 7 post-surgery, 2 and 4 hours post administration): significant dose-dependent inhibition of neuropathic pain
DVS (0-90-0 2 cycles) max water absorbed (DVS hygroscopicity; 90% RH exposure, ~24 hr run time, listed as D-Tartrate): absorbed max 7% water
DVS (hold at 75% RH) mass increase (DVS hygroscopicity): about 3.4%
DVS (hold at 75% RH) mass increase (DVS hygroscopicity; listed as D-Tartrate): 3.4% mass increase
